Test results reported in patent US6492333B1, “Treatment of myeloma bone disease with proteasomal and NF-κB activity inhibitors” (Osteoscreen, Inc., priority 1999, dated 2002).
Where a SMILES comes first, the peptide text is derived from it. The star is where a group is joined. Cbz = O=C(OCc1ccccc1)*; OtBu = CC(C)(C)O*

Legend:
U266BL cells = test: Viability of myeloma cells by trypan blue dye-exclusion assay (U266BL); type: cell-based, human; conditions: 24 hours
Experimental: (§1) In another experiment, the direct effect of the proteasomal inhibitor PSI and other NF-kB inhibitors on the viability in human myeloma cells and 5TGM-1 cells in vitro was evaluated.
(§2) 1×10^6 human myeloma (IM9 and U266BL) cells or 5TGM-1 cells were plated out in the presence and/or absence of PSI and other NF-κB inhibitors. After 24 hours, the viability of the myeloma cells was assessed by the trypan blue dye-exclusion assay. These compounds, at low (submicromolar) concentrations, markedly decrease the viability of both human and murine myeloma cells in culture.

human myeloma IM-9 cells = test: Viability of myeloma cells by trypan blue dye-exclusion assay (IM-9); type: cell-based; conditions: 24 hours
Experimental: as §1, §2

5TGM1 cells = test: Viability of myeloma cells by trypan blue dye-exclusion assay (5TGM-1); type: cell-based, murine; conditions: 100 nM, 24 hours
Experimental: as §1, §2

[1] = system: 5TGM-1 cultured myeloma cells; test: PSI injected into subcutaneous 5TGM-1 myeloma tumors in mice; type: in vivo, C57BL/KaLwRij mice
Experimental: Nine (9) C57BL/KaLwRij mice were inoculated with 0.5×10^6 5TGM-1 cultured myeloma cells which were injected subcutaneously over the flank.
One group had PSI injected directly into the tumors (˜5 mg/kg/day) and the other group had only vehicle injected into the tumors.

5TGM-1 cells = test: Serum tumor marker IgG2b in mice inoculated intravenously with 5TGM-1 cells; type: in vivo, C57BL/KwLaRij mice; conditions: PSI 5 mg/kg/day subcutaneously; sera on days 0, 7, 14 and 18
Experimental: Eight (8) C57BL/KwLaRij mice were each injected with 1×10^6 5TGM-1 cells through the tail vein. They were then randomized into two groups, one group dosed with PSI (5 mg/kg/day subcutaneously) and the other group (untreated control) received only vehicle. Sera were obtained at the start (day 0) and on days 7, 14 and 18 followed by assay for IgG2b.

[2] = system: 5TGM-1 cultured myeloma cells; test: Hind-limb paralysis after intravenous 5TGM-1 myeloma cell inoculation; type: in vivo, C57BL/KaLwRij mice; conditions: PSI 5 mg/kg/day subcutaneously for 28 days; untreated mice all paralysed by at least day 27
Experimental: Ten (10) C57BL/KaLwRij mice were inoculated intravenously with 1×10^6 5TGM-1 cultured myeloma cells. When untreated, the mice invariably develop hind-limb paralysis after 26-30 days.
One group of five (5) mice were injected with PSI (5 mg/kg/day) subcutaneously over their flank portion for 28 days and the other group received only vehicle. […] All of the untreated mice had developed hind-limb paralysis by at least day 27. In contrast, none of the PSI-treated group developed paraplegia before at least day 33.

[3] = relative to MG-132, MG-115 and MG-341

O=C(NC1=CC(=O)c2ccccc2C1=O)c1ccccc1 [PPM-18]
effect on viability as compared to control (U266BL cells; concentration not given): does not appear to affect viability appreciatively
effect on viability (human myeloma IM-9 cells; concentration not given): relatively ineffective

S=C(S)N1CCCC1 [PDTC, 1-pyrrolidine carbothiotic acid]
viability (U266BL cells; 0.1 μM): less than 40%

CC[C@H](C)[C@H](NC(=O)OCc1ccccc1)C(=O)N[C@@H](CCC(=O)OC(C)(C)C)C(=O)N[C@@H](C)C(=O)N[C@H](C=O)CC(C)C [PSI, N-carbobenzoyl-Ile-Glu-(OtBu)-Ala-Leu-CHO] (Cbz-IE(OtBu)AL-aldehyde)
viability (5TGM1 cells): ~0%
survival and signs of tumor ([1]; 4 months after treatment, PSI ~5 mg/kg/day intratumoral): alive and well with no signs of tumor
size of the tumors ([1]; PSI ~5 mg/kg/day injected directly into subcutaneous tumors, treatment commenced on day 35): decreased markedly
health of treated mice ([1]; up until 3 months after tumor inoculation, even though treatment was discontinued, PSI ~5 mg/kg/day intratumoral): remained healthy
tumor marker IgG2b in sera (5TGM-1 cells): markedly reduced
viability (U266BL cells; 0.01 μM): less than 20%
viability (human myeloma IM-9 cells; 0.01 μM): marked diminution in viability
time at which hind-limb paralysis (paraplegia) developed [2]: ≥ 33 days

C=C(C)[C@]12C[C@@H](C)[C@@]34O[C@](Cc5ccccc5)(O[C@@H]1[C@@H]3C=C(COC(=O)Cc1ccc(O)c(OC)c1)C[C@]1(O)C(=O)C(C)=C[C@@H]41)O2 [resiniferatoxin]
activity in the ABA assay [3]: less active
